Measurements: PubChem BioAssay AID1963449 (Molecular Pharmacology Branch, DTP, NCI, 2024)

Test system: 596521-263-R-J1-PDC complex spheroid growth
Assay: Anticancer human tumor 596521-263-R-J1-PDC patient-derived soft tissue sarcoma cell line growth inhibition [Asc]
Details: for IC50: curve of first compound; for viability, T/C: stronger effect = lower value
Outline: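 Tumor cells were grown as multicellular spheroids with stromal HUVEC and mesenchymal stem cells and treated singly or in combination. Concentrations fell in half-log steps from the clinical Cmax, or from 10 microM where none was known.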

[1] = second compound 0.00316 µM, first compound 0.00316 µM
[2] = second compound 0.00316 µM, first compound 0.01 µM
[3] = second compound 0.00316 µM, first compound 0.0316 µM
[4] = second compound 0.00316 µM, first compound 0.1 µM
[5] = second compound 0.00316 µM, first compound 0.316 µM
[6] = second compound 0.00316 µM, first compound 1 µM
[7] = second compound 0.01 µM, first compound 0.00316 µM
[8] = second compound 0.01 µM, first compound 0.01 µM
[9] = second compound 0.01 µM, first compound 0.0316 µM
[10] = second compound 0.01 µM, first compound 0.1 µM
[11] = second compound 0.01 µM, first compound 0.316 µM
[12] = second compound 0.01 µM, first compound 1 µM
[13] = second compound 0.0316 µM, first compound 0.00316 µM
[14] = second compound 0.0316 µM, first compound 0.01 µM
[15] = second compound 0.0316 µM, first compound 0.0316 µM
[16] = second compound 0.0316 µM, first compound 0.1 µM
[17] = second compound 0.0316 µM, first compound 0.316 µM
[18] = second compound 0.0316 µM, first compound 1 µM
[19] = second compound 0.1 µM, first compound 0.00316 µM
[20] = second compound 0.1 µM, first compound 0.01 µM
[21] = second compound 0.1 µM, first compound 0.0316 µM
[22] = second compound 0.1 µM, first compound 0.1 µM
[23] = second compound 0.1 µM, first compound 0.316 µM
[24] = second compound 0.1 µM, first compound 1 µM
[25] = second compound 0.316 µM, first compound 0.00316 µM
[26] = second compound 0.316 µM, first compound 0.01 µM
[27] = second compound 0.316 µM, first compound 0.0316 µM
[28] = second compound 0.316 µM, first compound 0.1 µM
[29] = second compound 0.316 µM, first compound 0.316 µM
[30] = second compound 0.316 µM, first compound 1 µM
[31] = second compound 1 µM, first compound 0.00316 µM
[32] = second compound 1 µM, first compound 0.01 µM
[33] = second compound 1 µM, first compound 0.0316 µM
[34] = second compound 1 µM, first compound 0.1 µM
[35] = second compound 1 µM, first compound 0.316 µM
[36] = second compound 1 µM, first compound 1 µM
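Also: spheroids exposed to compounds for 7 days.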

With `CCN1CCN(Cc2ccc(Nc3ncc(F)c(-c4cc(F)c5nc(C)n(C(C)C)c5c4)n3)nc2)CC1` + CNC(C)C(=O)NC1CN(S(=O)(=O)c2cccc(S(=O)(=O)N3CCC4CCC(C(=O)NC(c5ccccc5)c5ccccc5)N4C(=O)C(NC(=O)C(C)NC)C3)c2)CCC2CCC(C(=O)NC(c3ccccc3)c3ccccc3)N2C1=O the IC50 (second compound 0.00316 µM) was > 1000 nM, the IC50 (second compound 0.01 µM) was > 1000 nM and the IC50 (second compound 0.0316 µM) was > 1000 nM. The IC50 (second compound 0.1 µM) was > 1000 nM, the IC50 (second compound 0.316 µM) was > 1000 nM and the IC50 (second compound 1 µM) was > 1000 nM. The viability, T/C [1] was 90.8%, the viability, T/C [2] was 81.4% and the viability, T/C [3] was 77%. The viability, T/C [4] was 79.8%, the viability, T/C [5] was 81.7% and the viability, T/C [6] was 74.1%. The viability, T/C [7] was 98.6%, the viability, T/C [8] was 87.5% and the viability, T/C [9] was 81.2%. The viability, T/C [10] was 84.6%, the viability, T/C [11] was 81.6% and the viability, T/C [12] was 91.3%. It also gave a viability, T/C [13] of 79.9%, a viability, T/C [14] of 83.4% and a viability, T/C [15] of 79%. The viability, T/C [16] was 76.8%, the viability, T/C [17] was 93.5% and the viability, T/C [18] was 76%. The viability, T/C [19] was 73%, the viability, T/C [20] was 78.8% and the viability, T/C [21] was 76%. For the same molecule, the viability, T/C [22] was 86%, the viability, T/C [23] was 79.7% and the viability, T/C [24] was 84.8%. It also gave a viability, T/C [25] of 75.4%, a viability, T/C [26] of 78.1% and a viability, T/C [27] of 74.8%. It also gave a viability, T/C [28] of 77.3%, a viability, T/C [29] of 84.7% and a viability, T/C [30] of 78.3%. For the same molecule, the viability, T/C [31] was 70.4%, the viability, T/C [32] was 76% and the viability, T/C [33] was 72.3%. For the same molecule, the viability, T/C [34] was 70.7%, the viability, T/C [35] was 72.7% and the viability, T/C [36] was 69.4%.

Molecule `NC(=O)C(=Cn1cnc(-c2cc(C(F)(F)F)cc(C(F)(F)F)c2)n1)c1cncnc1` + CNC(C)C(=O)NC1CN(S(=O)(=O)c2cccc(S(=O)(=O)N3CCC4CCC(C(=O)NC(c5ccccc5)c5ccccc5)N4C(=O)C(NC(=O)C(C)NC)C3)c2)CCC2CCC(C(=O)NC(c3ccccc3)c3ccccc3)N2C1=O has an IC50 (second compound 0.00316 µM) of 20.4 nM, an IC50 (second compound 0.01 µM) of 25.6 nM and an IC50 (second compound 0.0316 µM) of 21.4 nM. It also gave an IC50 (second compound 0.1 µM) of 18.1 nM, an IC50 (second compound 0.316 µM) of 17.6 nM and an IC50 (second compound 1 µM) of 12.5 nM. It also gave a viability, T/C (second compound 0.00316 µM, first compound 0.000949 µM) of 99.8%, a viability, T/C (second compound 0.00316 µM, first compound 0.003 µM) of 94.3% and a viability, T/C (second compound 0.00316 µM, first compound 0.00949 µM) of 67.1%. For the same molecule, the viability, T/C (second compound 0.00316 µM, first compound 0.03 µM) was 42.8%, the viability, T/C (second compound 0.00316 µM, first compound 0.0949 µM) was 16.1% and the viability, T/C (second compound 0.00316 µM, first compound 0.3 µM) was 10.4%. It also gave a viability, T/C (second compound 0.01 µM, first compound 0.000949 µM) of 101%, a viability, T/C (second compound 0.01 µM, first compound 0.003 µM) of 101% and a viability, T/C (second compound 0.01 µM, first compound 0.00949 µM) of 84.3%. It also gave a viability, T/C (second compound 0.01 µM, first compound 0.03 µM) of 44.9%, a viability, T/C (second compound 0.01 µM, first compound 0.0949 µM) of 14.8% and a viability, T/C (second compound 0.01 µM, first compound 0.3 µM) of 9.7%. It also gave a viability, T/C (second compound 0.0316 µM, first compound 0.000949 µM) of 102%, a viability, T/C (second compound 0.0316 µM, first compound 0.003 µM) of 93.7% and a viability, T/C (second compound 0.0316 µM, first compound 0.00949 µM) of 75.8%. For the same molecule, the viability, T/C (second compound 0.0316 µM, first compound 0.03 µM) was 38.6%, the viability, T/C (second compound 0.0316 µM, first compound 0.0949 µM) was 18.7% and the viability, T/C (second compound 0.0316 µM, first compound 0.3 µM) was 10.5%. It also gave a viability, T/C (second compound 0.1 µM, first compound 0.000949 µM) of 93.6%, a viability, T/C (second compound 0.1 µM, first compound 0.003 µM) of 89.4% and a viability, T/C (second compound 0.1 µM, first compound 0.00949 µM) of 67.5%. It also gave a viability, T/C (second compound 0.1 µM, first compound 0.03 µM) of 35.6%, a viability, T/C (second compound 0.1 µM, first compound 0.0949 µM) of 14.6% and a viability, T/C (second compound 0.1 µM, first compound 0.3 µM) of 5.92%. For the same molecule, the viability, T/C (second compound 0.316 µM, first compound 0.000949 µM) was 95.3%, the viability, T/C (second compound 0.316 µM, first compound 0.003 µM) was 76.8% and the viability, T/C (second compound 0.316 µM, first compound 0.00949 µM) was 71.3%. For the same molecule, the viability, T/C (second compound 0.316 µM, first compound 0.03 µM) was 33.8%, the viability, T/C (second compound 0.316 µM, first compound 0.0949 µM) was 14.4% and the viability, T/C (second compound 0.316 µM, first compound 0.3 µM) was 6.61%. For the same molecule, the viability, T/C (second compound 1 µM, first compound 0.000949 µM) was 85.8%, the viability, T/C (second compound 1 µM, first compound 0.003 µM) was 81.8% and the viability, T/C (second compound 1 µM, first compound 0.00949 µM) was 56.1%. It also gave a viability, T/C (second compound 1 µM, first compound 0.03 µM) of 27.3%, a viability, T/C (second compound 1 µM, first compound 0.0949 µM) of 11.2% and a viability, T/C (second compound 1 µM, first compound 0.3 µM) of 7.61%.

Molecule `O=C(c1ccc(F)c(F)c1Nc1ccc(I)cc1F)N1CC(O)([C@@H]2CCCCN2)C1` + CNC(C)C(=O)NC1CN(S(=O)(=O)c2cccc(S(=O)(=O)N3CCC4CCC(C(=O)NC(c5ccccc5)c5ccccc5)N4C(=O)C(NC(=O)C(C)NC)C3)c2)CCC2CCC(C(=O)NC(c3ccccc3)c3ccccc3)N2C1=O has an IC50 (second compound 0.00316 µM) of 179 nM, an IC50 (second compound 0.01 µM) of 248 nM and an IC50 (second compound 0.0316 µM) of 211 nM. The IC50 (second compound 0.1 µM) was 187 nM, the IC50 (second compound 0.316 µM) was 186 nM and the IC50 (second compound 1 µM) was 149 nM. The viability, T/C [1] was 94%, the viability, T/C [2] was 89.4% and the viability, T/C [3] was 90.5%. For the same molecule, the viability, T/C [4] was 63.4%, the viability, T/C [5] was 37.2% and the viability, T/C [6] was 27.1%. It also gave a viability, T/C [7] of 88.4%, a viability, T/C [8] of 75.8% and a viability, T/C [9] of 93.3%. The viability, T/C [10] was 69.6%, the viability, T/C [11] was 45.2% and the viability, T/C [12] was 27.8%. The viability, T/C [13] was 96.6%, the viability, T/C [14] was 87% and the viability, T/C [15] was 84.9%. The viability, T/C [16] was 61%, the viability, T/C [17] was 43.9% and the viability, T/C [18] was 27.3%. It also gave a viability, T/C [19] of 76.5%, a viability, T/C [20] of 73.3% and a viability, T/C [21] of 73%. It also gave a viability, T/C [22] of 65%, a viability, T/C [23] of 37.5% and a viability, T/C [24] of 22.8%. The viability, T/C [25] was 78.9%, the viability, T/C [26] was 91.6% and the viability, T/C [27] was 77.4%. For the same molecule, the viability, T/C [28] was 65.9%, the viability, T/C [29] was 36.8% and the viability, T/C [30] was 23.8%. For the same molecule, the viability, T/C [31] was 65.9%, the viability, T/C [32] was 68.8% and the viability, T/C [33] was 74.2%. The viability, T/C [34] was 53.2%, the viability, T/C [35] was 37.9% and the viability, T/C [36] was 18.3%.
